Assays:
[1] = Human pharmacokinetics, single administration; assay type: in vivo; conditions: for CL/F / Cmax / MRT / T1/2 / tmax (median) / AUC(0-inf) / AUC(0-t) / Tmax: healthy adults, empty stomach; for Tmax: read-out: tmax (median)
Method: (§1) The formulation used in the clinical trial was prepared in the same manner as in Preparation Examples 1 and 2.

[2] = Human pharmacokinetics, multiple administration (Day 14); assay type: in vivo; conditions: for Accumulation ratio based on AUCτ / CL/Fss / Cmax, ss / MRT / T1/2 / Vz/Fss / tmax, ss (median) / AUCτ / AUC(0-inf): healthy adults; for Accumulation ratio based on AUCτ / CL/Fss / Cmax, ss / MRT / T1/2 / Vz/Fss / tmax, ss (median) / AUC(0-inf): Day 14; for AUCτ: Day 14, 12 hour dosing interval
Method: as §1

[3] = Pharmacokinetic model prediction of exposure in humans at various oral doses; parameters: species or system human; conditions: model-predicted
Description: Therefore, the optimal pharmacokinetic model parameters that can explain the changes in concentrations at all doses observed using Excel® and WinNonlin8.1 software were estimated for the blood drug concentration obtained in the human multidose clinical trial.

[4] = Safety/tolerance in healthy adults clinical trial; assay type: in vivo, human; conditions: 72 healthy adults, single (100-600 mg) and multiple (25-200 mg twice a day, 14 days) administration
Method: as §1

[5] = single oral 100 mg, enteric coated capsules
[6] = single oral 300 mg, enteric coated capsules
[7] = single oral 500 mg, enteric coated tablet
[8] = single oral 600 mg, enteric coated capsules
[9] = human, plasma, single oral 100 mg, enteric coated capsules
[10] = human, plasma, single oral 300 mg, enteric coated capsules
[11] = human, plasma, single oral 500 mg, enteric coated tablet
[12] = human, plasma, single oral 600 mg, enteric coated capsules

O[C@H]1CCCN[C@@H]1CCCn1cnc2c(Cl)c(Cl)ccc21 [Active component]
CL/F [1, 5]: 156.48 L/h | Cmax [1, 5]: 123.96 ng/mL | MRT [1, 5]: 9.26 h | T1/2 [1, 5]: 6.91 h | CL/F [1, 6]: 196.59 L/h | Cmax [1, 6]: 276.80 ng/mL | MRT [1, 6]: 9.75 h | T1/2 [1, 6]: 8.33 h | tmax (median) [1, 6]: 2.50 h | CL/F [1, 7]: 213.75 L/h | Cmax [1, 7]: 513.56 ng/mL | MRT [1, 7]: 9.57 h | T1/2 [1, 7]: 7.80 h | tmax (median) [1, 7]: 3.01 h | CL/F [1, 8]: 312.07 L/h | Cmax [1, 8]: 213.43 ng/mL | MRT [1, 8]: 9.79 h | T1/2 [1, 8]: 9.90 h | half-life ([1]; human, plasma, oral, single administration, across 100-600 mg doses, read-out: geometric mean half-life): 6.91 to 9.9 h | AUC(0-inf) [1, 9]: 639 ng·h/mL | AUC(0-t) [1, 9]: 594 ng·h/mL | Tmax [1, 9]: 3 h | AUC(0-inf) [1, 10]: 1530 ng·h/mL | AUC(0-t) [1, 10]: 1480 ng·h/mL | AUC(0-inf) [1, 11]: 2340 ng·h/mL | AUC(0-t) [1, 11]: 2280 ng·h/mL | AUC(0-inf) [1, 12]: 1920 ng·h/mL | AUC(0-t) [1, 12]: 1010 ng·h/mL | Tmax [1, 12]: 2 h | relationship of plasma concentrations to dose ([1]; single administration): dose proportional relationship | Accumulation ratio based on AUCτ ([2]; 25 mg tablet twice a day): 1.94 | CL/Fss ([2]; 25 mg tablet twice a day): 122.65 L/h | Cmax, ss ([2]; 25 mg tablet twice a day): 36.50 ng/mL | MRT ([2]; 25 mg tablet twice a day): 10.53 h | T1/2 ([2]; 25 mg tablet twice a day): 7.63 h | Vz/Fss ([2]; 25 mg tablet twice a day): 1433.79 L | tmax, ss (median) ([2]; 25 mg tablet twice a day): 2.00 h | AUCτ ([2]; 25 mg tablet twice a day): 183.32 ng·h/mL | Accumulation ratio based on AUCτ ([2]; 50 mg tablet twice a day): 2.33 | CL/Fss ([2]; 50 mg tablet twice a day): 116.53 L/h | Cmax, ss ([2]; 50 mg tablet twice a day): 102.61 ng/mL | MRT ([2]; 50 mg tablet twice a day): 8.44 h | T1/2 ([2]; 50 mg tablet twice a day): 4.40 h | Vz/Fss ([2]; 50 mg tablet twice a day): 738.97 L | AUCτ ([2]; 50 mg tablet twice a day): 429.09 ng·h/mL | Accumulation ratio based on AUCτ ([2]; 100 mg tablet twice a day): 1.88 | CL/Fss ([2]; 100 mg tablet twice a day): 161.97 L/h | Cmax, ss ([2]; 100 mg tablet twice a day): 151.27 ng/mL | MRT ([2]; 100 mg tablet twice a day): 10.17 h | T1/2 ([2]; 100 mg tablet twice a day): 9.26 h | Vz/Fss ([2]; 100 mg tablet twice a day): 2163.04 L | tmax, ss (median) ([2]; 100 mg tablet twice a day): 3.00 h | AUCτ ([2]; 100 mg tablet twice a day): 617.40 ng·h/mL | Accumulation ratio based on AUCτ ([2]; 200 mg tablet twice a day): 3.75 | CL/Fss ([2]; 200 mg tablet twice a day): 66.39 L/h | Cmax, ss ([2]; 200 mg tablet twice a day): 595.35 ng/mL | MRT ([2]; 200 mg tablet twice a day): 12.07 h | T1/2 ([2]; 200 mg tablet twice a day): 12.35 h | Vz/Fss ([2]; 200 mg tablet twice a day): 1182.53 L | AUCτ ([2]; 200 mg tablet twice a day): 3012.35 ng·h/mL | AUC(0-inf) ([2]; human, plasma, oral, 25 mg tablet twice a day): 301 ng·h/mL | AUC(0-inf) ([2]; human, plasma, oral, 50 mg tablet twice a day): 565 ng·h/mL | AUC(0-inf) ([2]; human, plasma, oral, 100 mg tablet twice a day): 888 ng·h/mL | AUC(0-inf) ([2]; human, plasma, oral, 200 mg tablet twice a day): 4750 ng·h/mL | AUC ([2]; human, plasma, oral, multiple administration, 14th day, across 25-200 mg, read-out: geometric mean dose interval in vivo exposure (AUCτ)): 183 to 3010 ng·h/mL | half-life ([2]; human, plasma, oral, multiple administration, 14th day, across 25-200 mg, read-out: geometric mean half-life): 4.4 to 12.3 h | relationship of plasma concentrations to dose ([2]; multiple administration, dose range of 25 mg to 200 mg): dose linear relationship | AUCtau ([3]; oral Dose 50 mg): 231.6352 ng·h/mL | AUCtau—24 hr ([3]; oral Dose 50 mg): 463.2704 ng·h/mL | CL/F ([3]; oral Dose 50 mg): 215856.7 mL/h | Cmax ([3]; oral Dose 50 mg): 38.271 ng/mL | T1/2 ([3]; oral Dose 50 mg): 9.753 h | Tmax ([3]; oral Dose 50 mg): 2.803 h | AUCtau ([3]; oral Dose 100 mg): 463.2704 ng·h/mL | AUCtau—24 hr ([3]; oral Dose 100 mg): 926.5407 ng·h/mL | CL/F ([3]; oral Dose 100 mg): 215856.7 mL/h | Cmax ([3]; oral Dose 100 mg): 76.5419 ng/mL | T1/2 ([3]; oral Dose 100 mg): 9.753 h | Tmax ([3]; oral Dose 100 mg): 2.803 h | AUCtau ([3]; oral Dose 150 mg): 694.9055 ng·h/mL | AUCtau—24 hr ([3]; oral Dose 150 mg): 1389.811 ng·h/mL | CL/F ([3]; oral Dose 150 mg): 215856.7 mL/h | Cmax ([3]; oral Dose 150 mg): 114.813 ng/mL | T1/2 ([3]; oral Dose 150 mg): 9.753 h | Tmax ([3]; oral Dose 150 mg): 2.803 h | AUCtau ([3]; oral Dose 200 mg): 926.5413 ng·h/mL | AUCtau—24 hr ([3]; oral Dose 200 mg): 1853 ng·h/mL | CL/F ([3]; oral Dose 200 mg): 215856.5 mL/h | Cmax ([3]; oral Dose 200 mg): 153.084 ng/mL | T1/2 ([3]; oral Dose 200 mg): 9.753 h | Tmax ([3]; oral Dose 200 mg): 2.803 h | serious abnormal signs or side effects [4]: no serious abnormal signs or side effects

Source: US20240238278A1, “Pharmaceutical Composition for Preventing or Treating Fibrosis” (Daewoong Pharmaceutical Co., Ltd., priority 2021, published 2024)
